Test results taken from ChEMBL document CHEMBL3351312, “Design of Fluorine-Containing 3,4-Diarylfuran-2(5H)-ones as Selective COX-1 Inhibitors” (ACS Med Chem Lett, 2014).

What was measured:
[1] = target: T1, Prostaglandin G/H synthase 1 (Ovis aries, UniProt P05979); test: Inhibition of ovine COX-1 assessed as inhibition of [14C]arachidonic acid to radiolabeled prostaglandins preincubated for 20 mins by TLC-based assay
T1 sequence (P05979 whole entry): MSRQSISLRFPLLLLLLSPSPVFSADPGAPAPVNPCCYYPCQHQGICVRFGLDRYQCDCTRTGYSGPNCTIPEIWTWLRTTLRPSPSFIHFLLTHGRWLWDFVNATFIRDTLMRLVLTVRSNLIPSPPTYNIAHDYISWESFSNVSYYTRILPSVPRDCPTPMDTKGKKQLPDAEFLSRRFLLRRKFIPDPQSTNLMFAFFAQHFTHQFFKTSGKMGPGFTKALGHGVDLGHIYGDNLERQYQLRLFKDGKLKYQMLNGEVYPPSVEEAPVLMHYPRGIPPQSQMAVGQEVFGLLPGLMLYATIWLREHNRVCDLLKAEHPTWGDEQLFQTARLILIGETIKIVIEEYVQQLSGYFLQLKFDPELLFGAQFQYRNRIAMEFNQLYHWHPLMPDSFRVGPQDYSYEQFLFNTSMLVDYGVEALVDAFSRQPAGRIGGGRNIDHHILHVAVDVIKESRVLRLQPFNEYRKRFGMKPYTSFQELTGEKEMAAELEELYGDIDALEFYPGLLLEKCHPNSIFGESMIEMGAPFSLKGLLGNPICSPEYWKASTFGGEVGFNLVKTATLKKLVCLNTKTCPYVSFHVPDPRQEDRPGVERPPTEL

[2] = target: T2, Prostaglandin G/H synthase 2 (Mus musculus, UniProt Q05769); test: Inhibition of mouse COX-2 assessed as inhibition of [14C]arachidonic acid to radiolabeled prostaglandins preincubated for 20 mins by TLC-based assay
T2 sequence (Q05769 whole entry): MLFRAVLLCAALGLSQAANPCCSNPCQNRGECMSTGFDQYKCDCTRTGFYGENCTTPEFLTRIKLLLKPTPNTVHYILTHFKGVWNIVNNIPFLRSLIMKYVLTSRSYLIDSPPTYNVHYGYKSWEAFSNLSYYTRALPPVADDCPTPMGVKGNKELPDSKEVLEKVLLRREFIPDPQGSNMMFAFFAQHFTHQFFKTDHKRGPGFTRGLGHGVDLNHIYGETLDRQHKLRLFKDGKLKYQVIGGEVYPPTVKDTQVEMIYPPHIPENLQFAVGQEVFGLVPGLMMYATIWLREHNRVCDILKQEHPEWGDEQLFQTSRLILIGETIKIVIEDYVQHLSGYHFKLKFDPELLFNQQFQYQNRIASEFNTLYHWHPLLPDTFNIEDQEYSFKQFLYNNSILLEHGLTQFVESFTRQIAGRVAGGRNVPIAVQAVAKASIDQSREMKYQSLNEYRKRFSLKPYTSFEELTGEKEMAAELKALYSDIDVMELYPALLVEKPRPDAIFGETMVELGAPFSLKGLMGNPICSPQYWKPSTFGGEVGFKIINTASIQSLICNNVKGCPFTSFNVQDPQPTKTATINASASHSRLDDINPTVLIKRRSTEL

[3] = target: Prostaglandin G/H synthase 1 (Homo sapiens, UniProt P23219); test: Inhibition of COX-1 in human OVCAR3 cells by cell-based assay; parameters: species or system OVCAR-3
Prostaglandin G/H synthase 1 (Homo sapiens, UniProt P23219), sequence (P23219 whole entry): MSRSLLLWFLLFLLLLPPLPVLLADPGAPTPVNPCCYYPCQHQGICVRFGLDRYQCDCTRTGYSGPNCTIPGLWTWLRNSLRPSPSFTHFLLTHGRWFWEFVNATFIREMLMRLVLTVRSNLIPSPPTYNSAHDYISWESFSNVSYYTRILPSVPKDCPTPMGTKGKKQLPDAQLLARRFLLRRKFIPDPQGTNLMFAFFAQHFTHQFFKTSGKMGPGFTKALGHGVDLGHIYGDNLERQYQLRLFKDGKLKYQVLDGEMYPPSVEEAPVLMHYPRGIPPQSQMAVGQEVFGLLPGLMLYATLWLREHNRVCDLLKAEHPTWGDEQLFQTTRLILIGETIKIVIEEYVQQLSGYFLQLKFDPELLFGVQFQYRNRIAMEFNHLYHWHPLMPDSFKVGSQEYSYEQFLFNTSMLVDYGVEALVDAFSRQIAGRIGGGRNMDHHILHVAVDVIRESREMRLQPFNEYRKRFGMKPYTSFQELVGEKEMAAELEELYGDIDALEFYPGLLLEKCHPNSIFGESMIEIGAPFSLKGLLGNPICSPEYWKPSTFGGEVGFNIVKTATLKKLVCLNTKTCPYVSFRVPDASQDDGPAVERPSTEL

[4] = target: T3, Prostaglandin G/H synthase 2 (Mus musculus) (UniProt Q05769); test: Inhibition of mouse COX-2 assessed as inhibition of [14C]arachidonic acid to radiolabeled prostaglandins measured as residual activity preincubated for 20 mins by TLC-based assay
T3 sequence (whole entry): T2 sequence (Q05769 whole entry)

[5] = target: T4, Prostaglandin G/H synthase 2 (Homo sapiens, UniProt P35354); test: Inhibition of COX-2 in human 1483 cells by cell-based assay
T4 sequence (P35354 whole entry): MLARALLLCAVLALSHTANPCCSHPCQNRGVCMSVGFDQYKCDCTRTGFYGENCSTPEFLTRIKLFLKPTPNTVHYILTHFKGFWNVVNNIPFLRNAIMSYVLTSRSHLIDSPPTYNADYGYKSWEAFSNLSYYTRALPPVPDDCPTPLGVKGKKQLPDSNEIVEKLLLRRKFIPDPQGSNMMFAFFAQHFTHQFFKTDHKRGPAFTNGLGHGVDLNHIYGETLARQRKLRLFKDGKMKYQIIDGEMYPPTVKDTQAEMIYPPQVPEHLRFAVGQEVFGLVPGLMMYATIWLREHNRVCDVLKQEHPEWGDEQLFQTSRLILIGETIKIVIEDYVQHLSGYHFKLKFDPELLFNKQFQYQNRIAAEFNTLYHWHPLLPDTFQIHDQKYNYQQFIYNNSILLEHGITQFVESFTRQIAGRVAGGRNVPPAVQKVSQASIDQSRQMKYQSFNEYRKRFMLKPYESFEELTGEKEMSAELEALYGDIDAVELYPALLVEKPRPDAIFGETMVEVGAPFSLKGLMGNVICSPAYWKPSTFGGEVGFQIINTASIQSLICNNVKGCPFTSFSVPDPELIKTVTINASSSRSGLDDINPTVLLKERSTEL

IC50 [1] [µM] | IC50 [2] [µM] | IC50 [3] [µM] | Activity [4] [%] | IC50 [5] [µM] | Structure (SMILES)
> 25 | > 25 |  |  |  | O=C1OCC(c2ccc(Cl)cc2)=C1c1ccnc(Cl)c1
> 25 | > 25 |  |  |  | CSc1ccc(C2=C(c3ccc(F)cc3)C(=O)OC2)cc1
> 25 | > 25 |  |  |  | O=C1OCC(c2ccc(F)cc2)=C1c1ccc(O)cc1
> 25 | > 25 |  |  |  | Cc1ccc(C2=C(c3ccc(Oc4ccc(F)cc4)cc3)C(=O)OC2)cc1
0.09 | > 25 | > 4 | > 50 | > 5 | COc1ccc(C2=C(c3ccc(I)cc3)C(=O)OC2)cc1
> 25 | > 25 |  |  |  | O=C1OCC(c2ccc(OC(F)(F)F)cc2)=C1c1cccc(F)c1
5 | > 25 |  |  |  | Cc1ccc(C2=C(c3ccnc(Cl)c3)C(=O)OC2)cc1
> 25 | > 25 |  |  |  | O=C1OCC(c2ccccc2F)=C1c1ccc(Cl)cc1
0.12 | 0.45 |  |  |  | COc1ccc(C2=C(c3ccc(Br)cc3)C(=O)OC2)cc1
> 25 | > 25 |  |  |  | O=C1OCC(c2ccccc2)=C1c1ccccc1F
> 25 | > 25 |  |  |  | Cc1ccc(C2=C(c3ccnc(F)c3)C(=O)OC2)cc1
> 25 | > 25 |  |  |  | Cc1ccc(C2=C(c3ccccc3F)COC2=O)cc1
4.4 | > 25 |  |  |  | COc1ccc(C2=C(c3ccnc(Cl)c3)C(=O)OC2)cc1
> 25 | > 25 |  |  |  | O=C1OCC(c2ccc(F)cc2)=C1c1ccc(Br)cc1
4.4 | > 25 |  |  |  | N#Cc1ccc(C2=C(c3ccnc(F)c3)C(=O)OC2)cc1
> 25 | > 25 |  |  |  | CN(C)c1ccc(C2=C(c3ccccc3F)COC2=O)cc1
> 25 | > 25 |  |  |  | O=C1OCC(c2ccccc2)=C1c1cccc(F)c1
> 25 | > 25 |  |  |  | O=C1OCC(c2ccccc2F)=C1c1ccc(Br)cc1
> 25 | > 25 |  |  |  | O=C1OCC(c2ccc(F)cc2)=C1c1ccc(Cl)cc1
> 25 | > 25 |  |  |  | Cc1ccc(C2=C(c3cccc(F)c3)C(=O)OC2)cc1
> 25 | > 25 |  |  |  | O=C1OCC(c2ccc(C(F)(F)F)cc2)=C1c1cccc(F)c1
15.7 | > 25 |  |  |  | O=C1OCC(c2ccc(Cl)cc2)=C1c1ccnc(F)c1
0.47 | > 25 |  |  |  | N#Cc1ccc(C2=C(c3cccc(F)c3)C(=O)OC2)cc1
8.8 | > 25 |  |  |  | COc1ccc(C2=C(c3cccc(C(F)(F)F)c3)C(=O)OC2)cc1
1.75 | > 25 |  |  |  | O=C1OCC(c2ccc(O)cc2)=C1c1cccc(F)c1

IC50 [1] [µM] | IC50 [2] [µM] | IC50 [3] [µM] | Activity [4] [%] | IC50 [5] [µM] | Structure (SMILES)
5.9 | > 25 |  |  |  | O=C1OCC(c2ccccc2)=C1c1ccccc1
> 25 | > 25 |  |  |  | O=C1OCC(c2ccccc2)=C1c1ccc(Oc2ccc(F)cc2)cc1
1 | > 25 |  |  |  | Cc1ccc(C2=C(c3ccccc3F)C(=O)OC2)cc1
> 25 | > 25 |  |  |  | COc1ccc(C2=C(c3ccc(Oc4ccc(F)cc4)cc3)C(=O)OC2)cc1
9.75 | > 25 |  |  |  | CCc1ccc(C2=C(c3cccc(F)c3)C(=O)OC2)cc1
> 25 | > 25 |  |  |  | COc1ccc(C2=C(c3ccccc3)C(=O)OC2)cc1
> 25 | > 25 |  |  |  | O=C1OCC(c2cccc(F)c2)=C1c1ccccc1
0.95 | > 25 | 0.78 |  | > 5 | Cc1ccc(C2=C(c3ccc(F)cc3)C(=O)OC2)cc1
0.36 | > 25 |  | > 50 |  | COc1ccc(C2=C(c3cccc(F)c3)C(=O)OC2)cc1
> 25 | > 25 |  |  |  | O=C1OCC(c2ccccc2F)=C1c1ccccc1
0.48 | > 25 | 0.36 | > 50 | > 5 | COc1ccc(C2=C(c3ccc(F)cc3)C(=O)OC2)cc1
0.3 | > 25 |  | > 50 |  | COc1ccc(C2=C(c3cccc(Cl)c3F)C(=O)OC2)cc1
3 | > 25 |  |  |  | N#Cc1ccc(C2=C(c3ccnc(Cl)c3)C(=O)OC2)cc1
> 25 | > 25 |  |  |  | O=C1OCC(c2ccc(F)cc2)=C1c1ccc(CO)cc1
> 25 | > 25 |  |  |  | Cc1ccc(C2=C(c3cccc(F)c3)COC2=O)cc1
> 25 | > 25 |  |  |  | O=C1OCC(c2ccc(F)cc2)=C1c1ccccc1
 | 0.06 |  |  |  | CS(=O)(=O)c1ccc(C2=C(c3ccccc3)C(=O)OC2)cc1 [ROFECOXIB]
1 | > 25 |  |  |  | COc1ccc(C2=C(c3ccc(C(F)(F)F)cc3)C(=O)OC2)cc1
> 25 | > 25 |  |  |  | O=C1OCC(c2ccccc2F)=C1c1ccc(CO)cc1
6 | > 25 | 2.8 |  | > 5 | O=C1OCC(c2ccccc2)=C1c1ccc(F)cc1
4.6 | > 25 |  |  |  | COc1ccc(C2=C(c3ccnc(F)c3)C(=O)OC2)cc1
> 25 | > 25 |  |  |  | COc1ccc(C2=C(c3ccccc3F)C(=O)OC2)cc1
> 25 | > 25 |  |  |  | CN(C)c1ccc(C2=C(c3ccc(F)cc3)COC2=O)cc1
> 25 | > 25 |  |  |  | Cc1ccc(C2=C(c3ccc(F)cc3)COC2=O)cc1
